Measured values as given in patent publication US8426447B2, “Spiro-tricyclic ring compounds as beta-secretase modulators and methods of use” (Amgen Inc., priority 2008, dated 2013).

Experiments:
[1] = molecular target: T1, BACE1 (Homo sapiens, UniProt P56817); experiment: In Vitro Enzymatic BACE FRET (Fluorescence Resonance Energy Transfer) Assay; type: biochemical
Procedure, shortened: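 First, compound and enzyme sit in 0.05 M acetate (pH 4.2, 10% DMSO final, 100 uM nonionic genapol). Next, 50 nM quenched FRET peptide starts the reaction for one hour. Last, Tris neutralises the mixture before fluorescence is measured.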

[2] = molecular target: T1, BACE1; experiment: In Vitro BACE Cell-based Assay (HEK cell assay): Aβ40 in conditioned medium of cells stably expressing Amyloid Precursor Protein, sandwich ELISA; settings: HEK cells
Procedure, shortened: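 APP-expressing cells were cultured 24 h in DMEM/10% FBS, then treated 24 h with compounds in 10-point dose response (top 100 μM or 10 μM; 0.1% DMSO final). Secreted Aβ40 was quantified by sandwich ELISA (pAb40 capture, biotinylated 6E10 detection, Europium TRF); IC50 from percent inhibition versus concentration.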

T1 sequence (P56817 46-501, species assumed): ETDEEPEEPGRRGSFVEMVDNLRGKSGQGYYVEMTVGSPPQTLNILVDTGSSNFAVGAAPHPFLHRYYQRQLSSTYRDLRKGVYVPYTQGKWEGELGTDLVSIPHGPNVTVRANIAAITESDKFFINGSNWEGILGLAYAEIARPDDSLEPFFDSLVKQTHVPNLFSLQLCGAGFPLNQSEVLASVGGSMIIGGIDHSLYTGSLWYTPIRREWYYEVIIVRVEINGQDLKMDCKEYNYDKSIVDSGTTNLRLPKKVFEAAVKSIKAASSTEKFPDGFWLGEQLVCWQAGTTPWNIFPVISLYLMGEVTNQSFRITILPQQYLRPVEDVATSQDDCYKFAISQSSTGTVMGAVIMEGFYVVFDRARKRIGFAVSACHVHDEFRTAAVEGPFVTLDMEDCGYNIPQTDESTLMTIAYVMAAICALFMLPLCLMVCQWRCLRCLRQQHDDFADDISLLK

IC50 ([1]; read-out: BACE1 FRET assay) | IC50 ([2]; read-out: HEK cell assay) | IC50 ([1]; BACE1 FRET assay (uM)) | IC50 ([2]; HEK cell assay (uM)) | SMILES
< 0.1 µM | < 0.1 µM | – | – | CC(C)(F)COc1cnc2c(c1)[C@]1(COC(N)=N1)c1cc(-c3cccnc3)ccc1O2 [compound 450]
< 0.1 µM | < 0.1 µM | – | – | CC(C)(F)COc1cnc2c(c1)[C@]1(COC(N)=N1)c1cc(-c3ccc(F)nc3)ccc1O2 [compound 451]
< 0.1 µM | 0.1 to 1 µM | – | – | CC(C)(F)COc1cnc2c(c1)[C@]1(COC(N)=N1)c1cc(-c3ccccc3)ccc1O2 [compound 452]
< 0.1 µM | < 0.1 µM | – | – | NC1=N[C@@]2(CO1)c1cc(-c3cc(F)ccc3F)ccc1Oc1ncc(N3C[C@@H]4C[C@H]3CO4)cc12 [compound 453]
< 0.1 µM | < 0.1 µM | – | – | NC1=N[C@@]2(CO1)c1cc(-c3ccccc3)ccc1Oc1ncc(N3C[C@@H]4C[C@H]3CO4)cc12 [compound 454]
< 0.1 µM | < 0.1 µM | – | – | CC(C)(C)CCc1cc2c(cn1)Oc1ccc(-c3cncnc3)cc1[C@@]21COC(N)=N1 [compound 455]
< 0.1 µM | < 0.1 µM | – | – | COC1CN(c2cnc3c(c2)[C@]2(COC(N)=N2)c2cc(-c4cc(F)ccc4F)ccc2O3)C1 [compound 456]
< 0.1 µM | < 0.1 µM | – | – | NC1=N[C@@]2(CO1)c1cc(-c3cc(Cl)ccc3F)ccc1Oc1ncc(N3CCOCC3)cc12 [compound 457]
< 0.1 µM | < 0.1 µM | – | – | CC1(COc2cnc3c(c2)[C@]2(COC(N)=N2)c2cc(-c4ccccc4F)ccc2O3)COC1 [compound 458]
< 0.1 µM | < 0.1 µM | – | – | CC1(COc2cnc3c(c2)[C@]2(COC(N)=N2)c2cc(-c4ccccc4)ccc2O3)COC1 [compound 459]
< 0.1 µM | 0.1 to 1 µM | – | – | NC1=N[C@@]2(CO1)c1cc(-c3ccccc3F)ccc1Oc1ncc(N3CCOCC3)cc12 [compound 460]
< 0.1 µM | < 0.1 µM | – | – | NC1=N[C@@]2(CO1)c1cc(-c3cc(F)ccc3F)ccc1Oc1ncc(N3CCOCC3)cc12 [compound 461]
< 0.1 µM | 0.1 to 1 µM | – | – | NC1=N[C@@]2(CO1)c1cc(-c3cncnc3)ccc1Oc1ccc(N3CCOC4(CCCC4)C3)cc12 [compound 462]
< 0.1 µM | < 0.1 µM | – | – | CC1(C)CN(c2cnc3c(c2)[C@]2(COC(N)=N2)c2cc(-c4cccnc4F)ccc2O3)CCO1 [compound 463]
< 0.1 µM | < 0.1 µM | – | – | COC1CCN(c2ccc3c(c2)[C@]2(COC(N)=N2)c2cc(-c4cccnc4)ccc2O3)CC1 [compound 464]
< 0.1 µM | < 0.1 µM | – | – | CC1(C)CC(c2cc(F)c3c(c2)[C@]2(COC(N)=N2)c2cc(-c4cncnc4)ccc2O3)=CCO1 [compound 465]
< 0.1 µM | < 0.1 µM | – | – | CC1(C)C=C(c2cc(F)c3c(c2)[C@]2(COC(N)=N2)c2cc(-c4cncnc4)ccc2O3)CCO1 [compound 466]
< 0.1 µM | 0.1 to 1 µM | – | – | CCC1(CC)CN(c2ccc3c(c2)[C@]2(COC(N)=N2)c2cc(-c4cncnc4)ccc2O3)CCO1 [compound 467]
< 0.1 µM | < 0.1 µM | – | – | CC1(C)CN(c2cnc3c(c2)[C@]2(COC(N)=N2)c2cc(-c4cc(F)ccc4F)ccc2O3)CCO1 [compound 468]
< 0.1 µM | 0.1 to 1 µM | – | – | CC(C)(C)COc1cnc2c(c1)[C@]1(COC(N)=N1)c1cc(-c3ccccc3)ccc1O2 [compound 469]
< 0.1 µM | < 0.1 µM | – | – | CC(C)(C)COc1cnc2c(c1)[C@]1(COC(N)=N1)c1cc(-c3ccc(F)nc3)ccc1O2 [compound 470]
< 0.1 µM | < 0.1 µM | – | – | CC(C)(C)CCc1cnc2c(c1)[C@]1(COC(N)=N1)c1cc(-c3cncnc3)ccc1O2 [compound 472]
< 0.1 µM | < 0.1 µM | – | – | N#Cc1ccc(-c2cnc3c(c2)[C@]2(COC(N)=N2)c2cc(-c4cncnc4)ccc2O3)cc1 [compound 473]

IC50 ([1]; read-out: BACE1 FRET assay) | IC50 ([2]; read-out: HEK cell assay) | IC50 ([1]; BACE1 FRET assay (uM)) | IC50 ([2]; HEK cell assay (uM)) | SMILES
< 0.1 µM | < 0.1 µM | – | – | COC1CN(c2cc(F)c3c(c2)[C@]2(COC(N)=N2)c2cc(-c4cccnc4)ccc2O3)C1 [compound 474]
< 0.1 µM | < 0.1 µM | – | – | CC1(C#Cc2cc(F)c3c(c2)[C@]2(COC(N)=N2)c2cc(-c4cncnc4)ccc2O3)COC1 [compound 475]
< 0.1 µM | < 0.1 µM | – | – | NC1=N[C@@]2(CO1)c1cc(-c3cccnc3)ccc1Oc1cc(F)c(C3=CCOCC3)cc12 [compound 476]
< 0.1 µM | < 0.1 µM | – | – | CC1(C)C=C(c2cnc3c(c2)[C@]2(COC(N)=N2)c2cc(-c4cncnc4)ccc2O3)CCO1 [compound 478]
< 0.1 µM | < 0.1 µM | – | – | CC1(C)C=C(c2cnc3c(c2)[C@]2(COC(N)=N2)c2cc(-c4cccnc4)ccc2O3)CCO1 [compound 481]
< 0.1 µM | < 0.1 µM | – | – | CC1(C)C[C@H](c2ccc3c(c2)[C@]2(COC(N)=N2)c2cc(-c4cncnc4)ccc2O3)CCO1 [compound 482]
< 0.1 µM | < 0.1 µM | – | – | C[C@@H]1CN(c2cc(F)c3c(c2)[C@]2(COC(N)=N2)c2cc(-c4cccnc4)ccc2O3)C[C@H](C)O1 [compound 483]
< 0.1 µM | < 0.1 µM | – | – | CC1(C)CN(c2cc(F)c3c(c2)[C@]2(COC(N)=N2)c2cc(-c4cccnc4)ccc2O3)CCO1 [compound 484]
< 0.1 µM | < 0.1 µM | – | – | NC1=N[C@@]2(CO1)c1cc(-c3cccc(F)c3)ccc1Oc1cnc(C3=CCOCC3)cc12 [compound 485]
< 0.1 µM | < 0.1 µM | – | – | NC1=N[C@@]2(CO1)c1cc(-c3cc(F)ccc3F)ccc1Oc1ncc(C3=CCOCC3)cc12 [compound 487]
< 0.1 µM | < 0.1 µM | – | – | NC1=N[C@@]2(CO1)c1cc(-c3ccccc3F)ccc1Oc1ncc(C3=CCOCC3)cc12 [compound 488]
– | – | < 0.1 µM | < 0.1 µM | CC1(C)CN(c2cc3c(cn2)Oc2ccc(-c4cccnc4F)cc2[C@@]32COC(N)=N2)CCO1 [compound 489]
0.1 to 1 µM | 1 to 5 µM | – | – | NC1=N[C@]2(CO1)c1cc(C3=CCOCC3)ccc1Oc1cc(F)c(O)cc12 [compound 491]
< 0.1 µM | < 0.1 µM | – | – | NC1=N[C@]2(CO1)c1cc(C3=CCOCC3)ccc1Oc1cc(F)c(-c3cccnc3)cc12 [compound 492]
< 0.1 µM | < 0.1 µM | – | – | NC1=N[C@@]2(CO1)c1cc(-c3cccnc3)ccc1Oc1cnc(N3CCCC3)cc12 [compound 493]
– | – | < 0.1 µM | < 0.1 µM | NC1=N[C@@]2(CO1)c1cc(-c3cccnc3F)ccc1Oc1cnc(-c3ccccc3)cc12 [compound 494]
< 0.1 µM | < 0.1 µM | – | – | NC1=N[C@]2(CO1)c1cc(C3=CCOCC3)ccc1Oc1cnc(-c3cccnc3F)cc12 [compound 497]
< 0.1 µM | 0.1 to 1 µM | – | – | NC1=N[C@]2(CO1)c1cc(C3=CCOCC3)ccc1Oc1cnc(-c3ccccc3F)cc12 [compound 498]
1 to 5 µM | > 5 µM | – | – | NC1=N[C@]2(CO1)c1cc(C3=CCOCC3)ccc1Oc1cnc(Cl)cc12 [compound 499]
0.1 to 1 µM | 1 to 5 µM | – | – | NC1=N[C@@]2(CO1)c1cc(-c3cncnc3)ccc1Oc1cnc(Cl)cc12 [compound 500]
< 0.1 µM | < 0.1 µM | – | – | C[C@@H]1CN(c2cc(F)c3c(c2)[C@]2(COC(N)=N2)c2cc(-c4cncnc4)ccc2O3)C[C@H](C)O1 [compound 501]
< 0.1 µM | < 0.1 µM | – | – | CC1(C)C=C(c2cc3c(cc2F)Oc2ccc(-c4cncnc4)cc2[C@@]32COC(N)=N2)CCO1 [compound 502]
